# Literature values in US20240115494A1, “ENCAPSULATED COMPOSITIONS AND METHOD OF USE - AFFECTING SATIETY” (Nutragenom, LLC, priority 2021, published 2024).
# Details: 100% glycerol, quoted for comparison
smiles,measurement,value
"OCC(O)CO [100% glycerol, glycerol]",Viscosity (comparison value),"4,000 mPa·s"
